Results: patent US8834938B2, “Use of arsenic for cancer therapy protection” (Board of Regents of the University of Texas System, priority 2011, dated 2014)
Where a name gives a salt, the structure may show the parent alone. Read-outs that look alike come from different tables or passages of the source. Starred links: 1 amine or outer side, 2 acyl side, 3 side chain; linkers in the order of their positions; H or OH if unused. Positions of bridges follow the written chain, without caps; N, C: chain ends. Non-standard residues stand in square brackets, D forms with d. Residues, ends and D or L forms follow the SMILES beside them. Chains are numbered I, II in the order given. Actinocin(9to1) = Cc1c2oc3c(C)ccc(C(=O)[*:1])c3nc-2c(C(=O)[*:2])c(N)c1=O; NMeV = CN[C@H](C(=O)O)C(C)C; Sar = CNCC(=O)O

Assays:
[1] = test system: small intestine and bone marrow cells; conditions: mouse, in vivo
[2] = test system: Human lung carcinoma cells A549; format: in vivo, mice
[3] = test system: Human breast carcinoma cells, MDA-MB-231; format: in vivo, mice
[4] = test system: small intestine and bone marrow cells; conditions: mouse, in vivo; remark: listed apart in the source
[5] = test system: Human colon carcinoma cells, SW-480; format: in vivo, mice
[6] = in vivo; cited from earlier work
[7] = oral; cited from earlier work
[8] = in vivo; cited from earlier work; remark: listed apart in the source
[9] = in vivo; cited from earlier work; remark: listed apart in the source
[10] = in vivo, cited from earlier work
[11] = in vivo; cited from earlier work; remark: listed apart in the source
[12] = oral, 30 mg/m^2 to 100 mg/m^2; cited from earlier work
multiple myeloma = conditions: oral administration; cited from earlier work
[13] = cited from earlier work
[14] = cited from earlier work; remark: listed apart in the source
[15] = test system: chronic myelogenous leukemia; conditions: previously untreated chronic myelogenous leukemia; cited from earlier work
certain animal tumors = conditions: in vivo; cited from earlier work
[16] = patients with creatinine clearance >35 mL per minute; cited from earlier work
[17] = mice; cited from earlier work
[18] = 10 mg daily over 2 to 3 hours IV; cited from earlier work
Heart = conditions: mouse, in vivo
p53 [19] = format: cell-based, human
Lung = conditions: mouse, in vivo
[20] = test system: human adult foreskin keratinocytes; conditions: cited from earlier work
p53 [21] = experiment: p53 response to irradiation in peripheral blood lymphocytes after arsenic removal; format: in vivo, Mice
Protocol: We next used mice to examine arsenic-mediated modulation of p53 activity in vivo. To this end, we used peripheral blood lymphocytes to monitor the p53 response to irradiation. Mice were fed with water containing arsenic for 3 days. Whole blood was collected from the animals 1, 3, 5, 7, 9, or 11 days after arsenic removal. Lymphocytes were isolated by using the Ficoll method. The cells were cultured for 24 h, then irradiated at a dose of 2 Gy and harvested 3 hours post-treatment. Western analysis was performed. Consistent with the results from cell-based studies, p53 activation by radiation recovered, albeit with a slightly slower kinetics, after arsenic was removed. Radiation-induced p53 accumulation and p21 expression were suppressed at 0 and 1 day […], partially recovered at day 7 and completely back to the untreated level at day 9.

[22] = set-up: species or system mice; conditions: mouse, in vivo
p53 [23] = format: cell-based
[24] = mouse, in vivo
[25] = mouse, in vivo; remark: listed apart in the source
p53 [26] = experiment: C57BL/6 WT vs p53 R172P knock-in mice, protection by arsenic; format: in vivo; conditions: in contrast with wild type littermates
[27] = set-up: species or system mice; conditions: mouse, in vivo; remark: listed apart in the source
[28] = mouse, in vivo; remark: listed apart in the source
[29] = mouse, in vivo; remark: listed apart in the source
[30] = 5FU 30 mg/kg i.v. daily for one week
[31] = after arsenic removal, 3 days arsenic water

Which “Damage to small intestine and bone marrow cells” value [1] does the source give for `O=c1[nH]cc(F)c(=O)[nH]1` [5FU, Fluorouracil] here?
The value was “severe damages”.

What about the Tumor volume response ([2]; 5FU 30 mg/kg intravenous daily for one week) of the same compound?
Its Tumor volume response is “marked tumor regression”.

And the Tumor volume response [3, 30]?
Its Tumor volume response is “marked tumor regression”.

And the Bone marrow cellularity [4]?
The Bone marrow cellularity was “Bone marrow cell exhaustion”.

And the “Damage to the small intestine” value [4]?
Its value is “severe damages”.

What about the Tumor volume response [5, 30] of the same compound?
Its Tumor volume response is “marked tumor regression”.

With `Cc1c2oc3c(C)ccc(C(=O)N[C@@H]4C(=O)N[C@H](C(C)C)C(=O)N5CCC[C@H]5C(=O)N(C)CC(=O)N(C)[C@@H](C(C)C)C(=O)O[C@@H]4C)c3nc-2c(C(=O)N[C@@H]2C(=O)N[C@H](C(C)C)C(=O)N3CCC[C@H]3C(=O)N(C)CC(=O)N(C)[C@@H](C(C)C)C(=O)O[C@@H]2C)c(N)c1=O` [Actinomycin D] (I: T[dV]P[Sar][NMeV] / II: T[dV]P[Sar][NMeV]; ester I:1-I:C, II:1-II:C; linker I:N-II:N via Actinocin(9to1)) as the compound, how does the Blood-brain barrier passage [6] read?
Its Blood-brain barrier passage is “does not pass the blood-brain barrier”.

What about the “Dose excreted intact into the bile” value [6] of the same compound?
Its value is “Half of the dose”.

What about the “Dose excreted intact into the urine” value [6] of the same compound?
The value was 10%.

What about the Half-life [6] of the same compound?
The Half-life was “about 36 hr”.

Which “Absorption from the gastrointestinal tract” value [7] does the source give for `O=C(O)CCCc1ccc(N(CCCl)CCCl)cc1` [Chlorambucil, 4-(bis(2-chlorethyl)amino)benzenebutanoic acid] here?
The value was “rapidly and completely absorbed”.

Which Oral absorption [8] does the source give for `N.N.[Cl][Pt][Cl]` [Cisplatin] here?
Its Oral absorption is “not absorbed orally”.

Which “Stability in the gastrointestinal tract” value [9] does the source give for `O.O=P1(N(CCCl)CCCl)NCCCO1` (centres unmarked) [Cyclophosphamide, 2H-1,3,2-Oxazaphosphorin-2-amine, N,N-bis(2-chloroethyl)tetrahydro-, 2-oxide, monohydrate] here?
Its value is “stable in the gastrointestinal tract”.

For `COc1cccc2c1C(=O)c1c(O)c3c(c(O)c1C2=O)C[C@@](O)(C(C)=O)C[C@@H]3O[C@H]1C[C@H](N)[C@H](O)[C@H](C)O1` [Daunorubicin, 5,12-Naphthacenedione, (8S-cis)-8-acetyl-10-(3-amino-2,3,6-trideoxy-a-L-lyxo-hexanopyranosyl)oxy)-7,8,9,10-tetrahydro-6,8,11-trihydroxy-10-methoxy hydrochloride], which Oral absorption ([10]; po) is on record?
Its Oral absorption is “poor”.

And the Half-life of elimination [10]?
The Half-life of elimination was “about 19 hr”.

For `COc1cccc2c1C(=O)c1c(O)c3c(c(O)c1C2=O)C[C@@](O)(C(=O)CO)C[C@@H]3O[C@H]1C[C@H](N)[C@H](O)[C@H](C)O1` [Doxorubicin, 5,12-Naphthacenedione, (8s-cis)-10-((3-amino-2,3,6-trideoxy-a-L-lyxo-hexopyranosyl)oxy)-7,8,9,10-tetrahydro-6,8,11-trihydroxy-8-(hydroxyacetyl)-1-methoxy-hydrochloride], which Absorption [11] is on record?
Its Absorption is “absorbed poorly”.

And the Elimination half-life [11]?
Its Elimination half-life is “about 30 hr”.

What about the “Excreted into the urine” value [11] of the same compound?
Its value is “a few percent”.

For `O=NN(CCCl)C(=O)NC1CCCCC1` [Lomustine, 1-(2-chloro-ethyl)-3-cyclohexyl-1 nitrosourea], which “Radioactivity excreted as degradation products within 24 hours” value [12] is on record?
The value was “about half”.

For `N[C@@H](Cc1ccc(N(CCCl)CCCl)cc1)C(=O)O` [Melphalan, 4-(bis(2-chloroethyl)amino)-L-phenylalanine], which “Patients showing a favorable response” value (multiple myeloma) is on record?
Its value is “one third to one half”.

What does the source list for `CO[C@@]12[C@H](COC(N)=O)C3=C(C(=O)C(C)=C(N)C3=O)N1C[C@@H]1N[C@@H]12` [Mitomycin]?
Time required to reduce the serum concentration by 50% ([13]; 30 mg bolus injection): 17 min; Dose excreted unchanged in the urine ([13]; in vivo): Approximately 10%

Which results are given for `CC[C@]1(O)C[C@@H]2CN(CCc3c([nH]c4ccccc34)[C@@](C(=O)OC)(c3cc4c(cc3OC)N(C)[C@H]3[C@@](O)(C(=O)OC)[C@H](OC(C)=O)[C@]5(CC)C=CCN6CC[C@]43[C@@H]65)C2)C1` [Vinblastine]?
Absorption after oral administration ([14]; in vivo): Unpredictable absorption; Dose recovered in the feces after biliary excretion ([14]; in vivo): about 10%; Plasma protein binding ([14]; in vivo): bind to plasma proteins; Plasma half-life after distribution (first) ([14]; intravenous injection): approximately 1 hours; Plasma half-life after distribution (second) ([14]; intravenous injection): ~72000 s; Peak concentration in plasma ([14]; usual clinical doses): approximately 0.4 mM

With `CC[C@]1(O)C[C@H]2CN(CCc3c([nH]c4ccccc34)[C@@](C(=O)OC)(c3cc4c(cc3OC)N(C=O)[C@H]3[C@@](O)(C(=O)OC)[C@H](OC(C)=O)[C@]5(CC)C=CCN6CC[C@]43[C@@H]65)C2)C1` [Vincristine] as the compound, how does the “Absorption after oral administration” value ([14]; in vivo) read?
Its value is “Unpredictable absorption”.

And the Plasma protein binding ([14]; in vivo)?
The Plasma protein binding was “bind to plasma proteins”.

What about the Terminal half-life ([14]; plasma) of the same compound?
Its Terminal half-life is “about 24 hours”.

For `CS(=O)(=O)OCCCCOS(C)(=O)=O` [busulfan, 1,4-butanediol dimethanesulfonate], which “Adults obtaining hematologic remission” value [15] is on record?
Its value is “Approximately 90%”.

For `COc1cccc2c1C(=O)c1c(O)c3c(c(O)c1C2=O)C[C@@](O)([C@H](C)O)C[C@@H]3O[C@H]1C[C@H](N)[C@H](O)[C@H](C)O1` [daunorubicinol], which “Half-life of active metabolite” value [10] is on record?
Its value is “about 27 hr”.

With `N[C@H](Cc1ccc(N(CCCl)CCCl)cc1)C(=O)O` [medphalan] as the compound, how does the “Activity against certain animal tumors relative to L-isomer” value (certain animal tumors) read?
Its value is “less active”.

Which results are given for Bleomycin?
Serum or plasma terminal elimination half-life [16]: approximately 115 minutes; Concentration in hematopoietic tissue [17]: low concentrations; Concentration in skin, lungs, kidneys, peritoneum, and lymphatics [17]: high concentrations

For arsenic (III) oxide [Arsenic Trioxide], which “Plasma arsenic mean peak level” value [18] is on record?
Its value is 6.85 µmol/L.

And the t1/2α [18]?
The t1/2α was 0.89 ± 0.29 h.

And the t1/2β [18]?
The t1/2β was 12.13 ± 3.31 h.

Which “Grade of Damage, Heart” value (Heart) does the source give for sodium arsenite here?
Its value is “Zero”.

And the “Damage to small intestine and bone marrow cells with arsenic pretreatment” value [1]?
The value was “significantly inhibited”.

What about the “Effect of arsenic pretreatment on 5FU-induced tumor suppression” value (from here on “Effect … on 5FU-induced tumor suppression”) ([2]; mouse, in vivo) of the same compound?
The value was “little effect”.

What about the “Effect of arsenic pretreatment on irradiation-induced tumor suppression” value ([2]; mouse, in vivo) of the same compound?
The value was “little effect”.

What about the “Effect on growth of the implant tumors” value ([2]; mouse, in vivo) of the same compound?
The value was “did not have any detectable effect”.

And the “Time after arsenic removal until p53 activation almost completely recovered” value (p53 [19])?
Its value is 7 days.

And the “Time in arsenic-free media until radiation-induced p53 activation detectable” value (p53 [19])?
Its value is 5 days.

And the “Grade of Damage, Lung” value (Lung)?
The value was “Zero”.

What about the “Effect … on 5FU-induced tumor suppression” value ([3]; mouse, in vivo) of the same compound?
The value was “little effect”.

What about the “5FU damage to the small intestine with arsenic pretreatment” value [4] of the same compound?
The value was “significantly ameliorated”.

What about the “5FU-induced decrease of bone marrow cellularity with arsenic pretreatment” value [4] of the same compound?
Its value is “considerably alleviated”.

And the “Concentration resulting in induced proliferation with enhanced NF-κB and AP-1 activity” value [20]?
The value was no more than 5 µM.

What about the “Concentration with statistically significant decrease of cell viability” value [20] of the same compound?
Its value is no less than 10 µM.

What about the “Radiation-induced p53 accumulation and p21 expression” value (p53 [21]; 0 and 1 day, lymphocytes irradiated 2 Gy ex vivo) of the same compound?
The value was “suppressed”.

And the “Day of complete return to untreated level of p53 accumulation and p21 expression” value (p53 [21]; [31])?
The value was 9 days.

And the “Day of partial recovery of radiation-induced p53 accumulation and p21 expression” value (p53 [21]; [31])?
Its value is 7 days.

What about the “p53-dependent tissue damages induced by 5FU treatment” value [22] of the same compound?
The value was “significantly blunted”.

And the “Effect on Hdm2 and p53 distribution” value (p53 [23])?
Its value is “upregulation of Hdm2 and accumulation of p53 in the cytoplasm”.

And the “p53 response to genotoxic stress” value (p53 [23])?
The value was “impaired p53 activation and apoptosis”.

What about the “5FU-induced body weight loss with arsenic pretreatment” value [24] of the same compound?
Its value is “almost completely prevented”.

What about the “Dose showing very clear toxicity by itself” value [25] of the same compound?
The value was greater than 3500 μg/kg body weight.

What about the “Protection against toxicity in p53 mutant mice” value (p53 [26]) of the same compound?
The value was “little protection”.

And the “Duration of pretreatment adequate for optimal protection” value [27]?
The value was 3 days.

And the “Protection with 1 and 2 days pretreatment” value [27]?
The value was “less than 3-day pretreatment”.

And the “Protection with pretreatments longer than 3-day” value [27]?
The value was “no further increase of benefits”.

What about the “5FU-induced body weight loss with arsenic pretreatment” value [28] of the same compound?
Its value is “almost completely prevented”.

What about the Body weight change [28] of the same compound?
The Body weight change was “little loss of body weight”.

What about the “Effect … on 5FU-induced tumor suppression” value ([5]; mouse, in vivo) of the same compound?
The value was “little effect”.

And the “Effect on growth of the implanted tumors” value ([5]; mouse, in vivo)?
Its value is “did not have any detectable effect”.

What about the Body weight change [29] of the same compound?
The Body weight change was “little loss of body weight”.

What about the “Therapy-induced body weight loss with arsenic pretreatment” value [29] of the same compound?
The value was “effectively prevented”.
